Assays:
B-Raf V600E = B-Raf V600E (Homo sapiens, UniProt P15056, V600E); experiment: B-Raf V600E biochemical kinase inhibition (AlphaScreen, biotin-MEK1 substrate); conditions: 100 μM ATP
Summary of the method: (§1)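 Raf kinases phosphorylating biotin-MEK1, reaction started with ATP at 100 μM final. Compounds tested at 8 points by serial dilution from a 0.1 mM DMSO stock.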

[1] = test system: SKMEL2 melanoma cells (Ras mutation); experiment: SKMEL2 cell growth inhibition (ATPlite); type: cell-based; conditions: Homo sapiens, SK-MEL-2, 72 h; SKMEL2, 3 days incubation
Summary of the method: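 SKMEL2 cells seeded at 2,000 per well overnight, then exposed to an 8-point 1:3 compound titration (top 10 μM final) for 3 days at 37 °C. ATPlite luminescence used as a measure of cell number to derive IC50.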

CYP3A4(BFC) = CYP3A4(BFC) (Homo sapiens, UniProt P08684); experiment: CYP3A4(BFC) inhibition (fluorescent substrate); type: in vitro ADME; conditions: read-out: Cyp IC50 3A4(BFC)
Summary of the method: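 Inhibition was followed as loss of fluorescent metabolite from a known substrate, with compound in co-factor mix as a 10-point 1:1 serial dilution (100 mM DMSO stock).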

c-Raf-1 = c-Raf-1 (Homo sapiens, UniProt P04049); experiment: c-Raf-1 biochemical kinase inhibition (AlphaScreen, biotin-MEK1 substrate); conditions: 100 μM ATP
Summary of the method: as §1

Chain of B-Raf V600E (P15056 whole entry V600E): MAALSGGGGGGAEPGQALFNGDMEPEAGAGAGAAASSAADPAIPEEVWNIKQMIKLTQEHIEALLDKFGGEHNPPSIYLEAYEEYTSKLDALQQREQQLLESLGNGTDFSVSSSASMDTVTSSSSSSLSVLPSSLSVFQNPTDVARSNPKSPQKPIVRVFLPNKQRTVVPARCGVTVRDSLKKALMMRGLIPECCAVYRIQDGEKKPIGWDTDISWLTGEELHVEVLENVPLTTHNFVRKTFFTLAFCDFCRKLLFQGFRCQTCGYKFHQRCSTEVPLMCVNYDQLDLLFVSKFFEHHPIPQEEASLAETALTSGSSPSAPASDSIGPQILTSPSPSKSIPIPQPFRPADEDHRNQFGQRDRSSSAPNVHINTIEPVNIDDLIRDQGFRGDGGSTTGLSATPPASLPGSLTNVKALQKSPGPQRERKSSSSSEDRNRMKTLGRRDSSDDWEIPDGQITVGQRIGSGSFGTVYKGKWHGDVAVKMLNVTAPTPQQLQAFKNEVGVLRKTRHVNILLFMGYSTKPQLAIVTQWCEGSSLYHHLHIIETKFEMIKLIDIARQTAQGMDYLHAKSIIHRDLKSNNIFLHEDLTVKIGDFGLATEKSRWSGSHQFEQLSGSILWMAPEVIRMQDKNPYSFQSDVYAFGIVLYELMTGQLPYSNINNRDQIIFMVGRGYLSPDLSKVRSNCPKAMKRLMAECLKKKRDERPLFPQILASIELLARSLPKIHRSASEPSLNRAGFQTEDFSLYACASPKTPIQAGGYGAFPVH
Chain of CYP3A4(BFC) (P08684 whole entry): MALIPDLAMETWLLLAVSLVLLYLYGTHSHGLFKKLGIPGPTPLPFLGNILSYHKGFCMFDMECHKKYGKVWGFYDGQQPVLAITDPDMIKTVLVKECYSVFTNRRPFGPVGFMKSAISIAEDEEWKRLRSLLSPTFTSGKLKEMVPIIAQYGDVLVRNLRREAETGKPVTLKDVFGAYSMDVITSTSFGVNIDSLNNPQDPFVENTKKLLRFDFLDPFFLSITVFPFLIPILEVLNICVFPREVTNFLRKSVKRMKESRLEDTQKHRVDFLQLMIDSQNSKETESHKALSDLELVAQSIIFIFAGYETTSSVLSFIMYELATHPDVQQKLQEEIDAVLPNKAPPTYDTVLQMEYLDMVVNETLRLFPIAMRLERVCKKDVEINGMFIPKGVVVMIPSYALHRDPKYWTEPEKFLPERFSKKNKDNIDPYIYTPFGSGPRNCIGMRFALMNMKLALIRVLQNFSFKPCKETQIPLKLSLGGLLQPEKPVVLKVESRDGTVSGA
Chain of c-Raf-1 (P04049 whole entry): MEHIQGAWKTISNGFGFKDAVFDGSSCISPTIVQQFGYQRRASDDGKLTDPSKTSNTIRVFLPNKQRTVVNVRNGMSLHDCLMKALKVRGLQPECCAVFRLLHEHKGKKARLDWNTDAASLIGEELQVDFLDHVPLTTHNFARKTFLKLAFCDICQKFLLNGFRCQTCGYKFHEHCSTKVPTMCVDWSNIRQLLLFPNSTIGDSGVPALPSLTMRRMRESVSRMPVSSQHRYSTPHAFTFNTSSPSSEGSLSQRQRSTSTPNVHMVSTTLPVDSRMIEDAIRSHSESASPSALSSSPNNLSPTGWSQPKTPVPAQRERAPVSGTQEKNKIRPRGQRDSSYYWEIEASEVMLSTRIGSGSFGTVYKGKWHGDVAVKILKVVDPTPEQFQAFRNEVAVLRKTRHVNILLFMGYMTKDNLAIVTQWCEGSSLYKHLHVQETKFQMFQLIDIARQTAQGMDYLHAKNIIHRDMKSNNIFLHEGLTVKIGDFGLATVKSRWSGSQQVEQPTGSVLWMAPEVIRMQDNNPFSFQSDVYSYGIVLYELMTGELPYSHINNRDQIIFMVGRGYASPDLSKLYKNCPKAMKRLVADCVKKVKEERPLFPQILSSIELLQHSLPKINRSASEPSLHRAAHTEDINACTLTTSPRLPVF

SMILES	IC50 (B-Raf V600E)	IC50 [1]	IC50 (CYP3A4(BFC))	IC50 (c-Raf-1)
COc1cnc2[nH]cc(C(=O)c3c(F)ccc(NS(=O)(=O)c4ccccc4F)c3F)c2c1 [P-2009, N-[2,4-Difluoro-3-(5-methoxy-1H-pyrrolo[2,3-b]pyridine-3-carbonyl)-phenyl]-2-fluoro-benzenesulfonamide]	< 10 nM	> 10000 nM	> 10000 nM	
N#Cc1cnc2[nH]cc(C(=O)c3c(F)ccc(NS(=O)(=O)c4ccccc4F)c3F)c2c1 [P-2011, N-[3-(5-Cyano-1H-pyrrolo[2,3-b]pyridine-3-carbonyl)-2,4-difluoro-phenyl]-2-fluoro-benzenesulfonamide]	< 10 nM	> 10000 nM	> 10000 nM	
Cc1cnc2[nH]cc(C(=O)c3c(F)ccc(NS(=O)(=O)c4ccccc4F)c3F)c2c1 [P-2014, N-[2,4-Difluoro-3-(5-methyl-1H-pyrrolo[2,3-b]pyridine-3-carbonyl)-phenyl]-2-fluoro-benzenesulfonamide]	< 10 nM	> 10000 nM	> 10000 nM	
Cc1cnc2[nH]cc(C(=O)c3c(F)ccc(NS(=O)(=O)c4cccc(F)c4)c3F)c2c1 [P-2016, N-[2,4-Difluoro-3-(5-methyl-1H-pyrrolo[2,3-b]pyridine-3-carbonyl)-phenyl]-3-fluoro-benzenesulfonamide]	< 10 nM	> 10000 nM	> 10000 nM	
O=C(c1c(F)ccc(NS(=O)(=O)c2ccccc2F)c1F)c1c[nH]c2nccc(Cl)c12 [P-2017, N-[3-(4-Chloro-1H-pyrrolo[2,3-b]pyridine-3-carbonyl)-2,4-difluoro-phenyl]-2-fluoro-benzenesulfonamide]	< 10 nM	> 10000 nM	> 10000 nM	
Cc1cnc2[nH]cc(C(=O)c3c(F)ccc(NS(=O)(=O)c4c(F)cccc4F)c3F)c2c1 [P-2024, N-[2,4-Difluoro-3-(5-methyl-1H-pyrrolo[2,3-b]pyridine-3-carbonyl)-phenyl]-2,6-difluoro-benzenesulfonamide]	< 100 nM		> 10000 nM	< 10 nM
COc1ncc(-c2cnc3[nH]cc(C(=O)c4c(F)ccc(NS(=O)(=O)c5ccccc5F)c4F)c3c2)cn1 [P-2041, N-{2,4-Difluoro-3-[5-(2-methoxy-pyrimidin-5-yl)-1H-pyrrolo[2,3-b]pyridine-3-carbonyl]-phenyl}-2-fluoro-benzenesulfonamide]	< 10 nM		> 10000 nM	< 10 nM
COc1ncc(-c2cnc3[nH]cc(C(=O)c4c(F)ccc(NS(=O)(=O)c5cc(F)ccc5F)c4F)c3c2)cn1 [P-2042, N-{2,4-Difluoro-3-[5-(2-methoxy-pyrimidin-5-yl)-1H-pyrrolo[2,3-b]pyridine-3-carbonyl]-phenyl}-2,5-difluoro-benzenesulfonamide]	< 10 nM		> 10000 nM	< 10 nM
COc1ncc(-c2cnc3[nH]cc(C(=O)c4c(F)ccc(NS(=O)(=O)c5c(F)cccc5F)c4F)c3c2)cn1 [P-2043, N-{2,4-Difluoro-3-[5-(2-methoxy-pyrimidin-5-yl)-1H-pyrrolo[2,3-b]pyridine-3-carbonyl]-phenyl}-2,6-difluoro-benzenesulfonamide]	< 10 nM		> 10000 nM	< 10 nM
COc1ncc(-c2cnc3[nH]cc(C(=O)c4c(F)ccc(NS(=O)(=O)c5cccc(F)c5)c4F)c3c2)cn1 [P-2045, N-{2,4-Difluoro-3-[5-(2-methoxy-pyrimidin-5-yl)-1H-pyrrolo[2,3-b]pyridine-3-carbonyl]-phenyl}-3-fluoro-benzenesulfonamide]	< 100 nM		> 10000 nM	< 10 nM
N#Cc1cnc2[nH]cc(C(=O)c3cccc(NS(=O)(=O)c4c(F)cccc4F)c3F)c2c1 [P-2054, N-[3-(5-Cyano-1H-pyrrolo[2,3-b]pyridine-3-carbonyl)-2-fluoro-phenyl]-2,6-difluoro-benzenesulfonamide]	< 10 nM		> 10000 nM	< 100 nM
Cc1cnc2[nH]cc(C(=O)c3c(F)ccc(NS(=O)(=O)c4cccnc4)c3F)c2c1 [P-2069, Pyridine-3-sulfonic acid [2,4-difluoro-3-(5-methyl-1H-pyrrolo[2,3-b]pyridine-3-carbonyl)-phenyl]-amide]	< 10 nM		< 5000 nM	< 10 nM
CCCS(=O)(=O)Nc1ccc(F)c(C(=O)c2c[nH]c3ncc(-c4ccc(C(=O)NCC)nc4)cc23)c1F [P-2151, 5-{3-[2,6-Difluoro-3-(propane-1-sulfonylamino)-benzoyl]-1H-pyrrolo[2,3-b]pyridin-5-yl}-pyridine-2-carboxylic acid ethylamide]	< 10 nM		> 10000 nM	< 10 nM
CCCS(=O)(=O)Nc1ccc(F)c(C(=O)c2c[nH]c3ncc(-c4ccc(S(N)(=O)=O)cc4)cc23)c1F [P-2194, 4-{3-[2,6-Difluoro-3-(propane-1-sulfonylamino)-benzoyl]-1H-pyrrolo[2,3-b]pyridin-5-yl}-benzenesulfonamide]	< 10 nM		> 10000 nM	< 10 nM
CCCS(=O)(=O)Nc1ccc(F)c(C(=O)c2c[nH]c3ncc(-c4cnc(OC)nc4OC)cc23)c1F [P-2199, Propane-1-sulfonic acid {3-[5-(2,4-dimethoxy-pyrimidin-5-yl)-1H-pyrrolo[2,3-b]pyridine-3-carbonyl]-2,4-difluoro-phenyl}-amide]	< 10 nM		> 10000 nM	< 10 nM
CCCS(=O)(=O)Nc1ccc(F)c(C(=O)c2c[nH]c3ncc(-c4ccc(C#CCN(CC)CC)nc4)cc23)c1F [P-2222, Propane-1-sulfonic acid (3-{5-[6-(3-diethylamino-prop-1-ynyl)-pyridin-3-yl]-1H-pyrrolo[2,3-b]pyridine-3-carbonyl}-2,4-difluoro-phenyl)-amide]	< 10 nM		> 10000 nM	< 10 nM
CCCc1ccc(-c2cnc3[nH]cc(C(=O)c4c(F)ccc(NS(=O)(=O)CCC)c4F)c3c2)cn1 [P-2224, Propane-1-sulfonic acid {2,4-difluoro-3-[5-(6-propyl-pyridin-3-yl)-1H-pyrrolo[2,3-b]pyridine-3-carbonyl]-phenyl}-amide]	< 10 nM		> 10000 nM	< 10 nM
CCCS(=O)(=O)Nc1ccc(F)c(C(=O)c2c[nH]c3ncc(-c4ccc(CCCOC)nc4)cc23)c1F [P-2226, Propane-1-sulfonic acid (2,4-difluoro-3-{5-[6-(3-methoxy-propyl)-pyridin-3-yl]-1H-pyrrolo[2,3-b]pyridine-3-carbonyl}-phenyl)-amide]	< 10 nM		> 10000 nM	< 100 nM
CCCS(=O)(=O)Nc1ccc(F)c(C(=O)c2c[nH]c3ncc(-c4cccc(S(C)(=O)=O)c4)cc23)c1F [P-2228, Propane-1-sulfonic acid {2,4-difluoro-3-[5-(3-methanesulfonyl-phenyl)-1H-pyrrolo[2,3-b]pyridine-3-carbonyl]-phenyl}-amide]	< 10 nM		> 10000 nM	< 10 nM
CCCS(=O)(=O)Nc1ccc(F)c(C(=O)c2c[nH]c3ncc(-c4ccc(N5CCCC5)nc4)cc23)c1F [P-2231, Propane-1-sulfonic acid {2,4-difluoro-3-[5-(6-pyrrolidin-1-yl-pyridin-3-yl)-1H-pyrrolo[2,3-b]pyridine-3-carbonyl]-phenyl}-amide]	< 10 nM		> 10000 nM	< 100 nM
CCCS(=O)(=O)Nc1ccc(F)c(C(=O)c2c[nH]c3ncc(-c4ccc(OCCN5CCOCC5)nc4)cc23)c1F [P-2232, Propane-1-sulfonic acid (2,4-difluoro-3-{5-[6-(2-morpholin-4-yl-ethoxy)-pyridin-3-yl]-1H-pyrrolo[2,3-b]pyridine-3-carbonyl}-phenyl)-amide]	< 10 nM		> 10000 nM	< 10 nM
CCCS(=O)(=O)Nc1ccc(F)c(C(=O)c2c[nH]c3ncc(-c4ccc(OCCN5CCCC5)nc4)cc23)c1F [P-2233, Propane-1-sulfonic acid (2,4-difluoro-3-{5-[6-(2-pyrrolidin-1-yl-ethoxy)-pyridin-3-yl]-1H-pyrrolo[2,3-b]pyridine-3-carbonyl}-phenyl)-amide]	< 10 nM		> 10000 nM	< 10 nM
CCCS(=O)(=O)Nc1ccc(F)c(C(=O)c2c[nH]c3ncc(-c4ccc(OCCCN5CCCC5)nc4)cc23)c1F [P-2235, Propane-1-sulfonic acid (2,4-difluoro-3-{5-[6-(3-pyrrolidin-1-yl-propoxy)-pyridin-3-yl]-1H-pyrrolo[2,3-b]pyridine-3-carbonyl}-phenyl)-amide]	< 10 nM		> 10000 nM	< 10 nM
CCCS(=O)(=O)Nc1ccc(F)c(C(=O)c2c[nH]c3ncc(-c4ccc(OCCCN5CCOCC5)nc4)cc23)c1F [P-2236, Propane-1-sulfonic acid (2,4-difluoro-3-{5-[6-(3-morpholin-4-yl-propoxy)-pyridin-3-yl]-1H-pyrrolo[2,3-b]pyridine-3-carbonyl}-phenyl)-amide]	< 10 nM		< 5000 nM	< 10 nM
C#Cc1cnc2[nH]cc(C(=O)c3c(F)ccc(NS(=O)(=O)CCC)c3F)c2c1 [P-2260, Propane-1-sulfonic acid [3-(5-ethynyl-1H-pyrrolo[2,3-b]pyridine-3-carbonyl)-2,4-difluoro-phenyl]-amide]	< 10 nM		< 5000 nM	< 10 nM
CCCS(=O)(=O)Nc1cccc(C(=O)c2c[nH]c3ncc(-c4cnc(N(C)C)nc4)cc23)c1F [P-2408, Propane-1-sulfonic acid {3-[5-(2-dimethylamino-pyrimidin-5-yl)-1H-pyrrolo[2,3-b]pyridine-3-carbonyl]-2-fluoro-phenyl}-amide]	< 10 nM		> 10000 nM	< 100 nM
